Our source for the EC50 and IC50 values is patent US20060287313A1, “Isoquinoline compounds and methods of use thereof” (Inotek Pharmaceuticals Corporation, priority 2005, published 2006).

In assay [1] the target is T1, PARS (Mus musculus, UniProt P11103).
T1 construct: endogenous in cells; host or cells: RAW murine macrophages
Kind of assay: Cell protection assay: PARS activity in peroxynitrite-treated raw murine macrophages. In kind it is cell-based. Conditions: peroxynitrite 750 μM, 3H-NAD incorporation, calculated from a dose-response curve. The method, then:
The media was removed and replaced with 0.5 mL HEPES (pH 7.5) containing 0.01% digitonin and ^3H-NAD (0.5 μCi/mL, final concentration of NAD+ in buffer is […]) and the resultant mixture was allowed to stand for 20 minutes. […] The tubes were maintained at 4° C. for four hours, centrifuged at 1800 g for 10 minutes, and the supernatant removed. […] The contents of the tubes were then added to ScintiSafe Plus scintillation liquid (6.5 ml, Fisher Scientific) and radioactivity was measured using a liquid scintillation counter (Wallac, Gaithersburg, Md.).

The target in assay [2] is T2, purified PARS enzyme (Homo sapiens, UniProt P09874).
T2 construct: purchased Trevigen, Gaithersburg, Md
T2 sequence (P09874 whole entry): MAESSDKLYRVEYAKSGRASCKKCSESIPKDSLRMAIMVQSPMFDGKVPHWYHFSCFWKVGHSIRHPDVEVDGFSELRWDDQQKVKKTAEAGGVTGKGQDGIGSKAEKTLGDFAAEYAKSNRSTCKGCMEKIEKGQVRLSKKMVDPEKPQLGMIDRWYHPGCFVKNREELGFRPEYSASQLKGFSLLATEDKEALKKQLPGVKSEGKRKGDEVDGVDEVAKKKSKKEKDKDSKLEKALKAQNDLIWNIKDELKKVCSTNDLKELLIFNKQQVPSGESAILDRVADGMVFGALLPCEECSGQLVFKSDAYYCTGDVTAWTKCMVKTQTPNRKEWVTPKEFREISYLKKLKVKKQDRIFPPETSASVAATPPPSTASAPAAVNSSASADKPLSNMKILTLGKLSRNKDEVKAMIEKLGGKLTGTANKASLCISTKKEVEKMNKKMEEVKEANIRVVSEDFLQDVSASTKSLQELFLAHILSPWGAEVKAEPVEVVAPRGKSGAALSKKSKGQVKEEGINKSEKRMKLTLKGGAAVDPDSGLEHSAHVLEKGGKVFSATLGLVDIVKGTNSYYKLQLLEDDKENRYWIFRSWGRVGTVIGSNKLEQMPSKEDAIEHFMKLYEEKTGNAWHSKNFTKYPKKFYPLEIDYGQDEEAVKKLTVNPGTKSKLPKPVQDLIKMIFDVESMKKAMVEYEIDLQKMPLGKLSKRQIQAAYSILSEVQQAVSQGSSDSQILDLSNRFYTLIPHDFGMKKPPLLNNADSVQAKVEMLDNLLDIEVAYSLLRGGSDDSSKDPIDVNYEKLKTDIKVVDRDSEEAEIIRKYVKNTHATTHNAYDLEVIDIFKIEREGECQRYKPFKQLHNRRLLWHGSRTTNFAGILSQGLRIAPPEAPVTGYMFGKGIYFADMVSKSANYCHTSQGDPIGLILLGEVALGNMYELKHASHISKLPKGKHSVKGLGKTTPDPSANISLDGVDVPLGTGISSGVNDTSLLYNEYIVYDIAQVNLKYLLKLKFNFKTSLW
Kind of assay: Purified PARS enzyme assay (Trevigen PARS inhibition assay kit). In kind it is biochemical. Conditions: Table 1, inhibitory effect on PARS; assay not given. The method, then: The assay is performed in 96 well ELISA plates according to instructions provided with a commercially available PARS inhibition assay kit (for example, from Trevigen, Gaithersburg, Md.).
The assay was performed in 96 well ELISA plates according to instructions provided with a commercially available PARS inhibition assay kit (Trevigen, Gaithersburg, Md.). Briefly, wells were coated with 1 mg/ml histone (50 μl/well) at 4 C overnight. Plates were then washed four times with PBS and then blocked by adding 50 μl Strep-Diluent (supplied with the kit). After incubation (1 h, 25° C.), the plates were washed four times with PBS. […] The reaction was allowed to proceed for 30 min at room temperature. After 4 washes in PBS, incorporated biotin was detected by peroxidase-conjugated streptavidin (1:500 dilution) and TACS Sapphire substrate.

T1 sequence (P11103 whole entry): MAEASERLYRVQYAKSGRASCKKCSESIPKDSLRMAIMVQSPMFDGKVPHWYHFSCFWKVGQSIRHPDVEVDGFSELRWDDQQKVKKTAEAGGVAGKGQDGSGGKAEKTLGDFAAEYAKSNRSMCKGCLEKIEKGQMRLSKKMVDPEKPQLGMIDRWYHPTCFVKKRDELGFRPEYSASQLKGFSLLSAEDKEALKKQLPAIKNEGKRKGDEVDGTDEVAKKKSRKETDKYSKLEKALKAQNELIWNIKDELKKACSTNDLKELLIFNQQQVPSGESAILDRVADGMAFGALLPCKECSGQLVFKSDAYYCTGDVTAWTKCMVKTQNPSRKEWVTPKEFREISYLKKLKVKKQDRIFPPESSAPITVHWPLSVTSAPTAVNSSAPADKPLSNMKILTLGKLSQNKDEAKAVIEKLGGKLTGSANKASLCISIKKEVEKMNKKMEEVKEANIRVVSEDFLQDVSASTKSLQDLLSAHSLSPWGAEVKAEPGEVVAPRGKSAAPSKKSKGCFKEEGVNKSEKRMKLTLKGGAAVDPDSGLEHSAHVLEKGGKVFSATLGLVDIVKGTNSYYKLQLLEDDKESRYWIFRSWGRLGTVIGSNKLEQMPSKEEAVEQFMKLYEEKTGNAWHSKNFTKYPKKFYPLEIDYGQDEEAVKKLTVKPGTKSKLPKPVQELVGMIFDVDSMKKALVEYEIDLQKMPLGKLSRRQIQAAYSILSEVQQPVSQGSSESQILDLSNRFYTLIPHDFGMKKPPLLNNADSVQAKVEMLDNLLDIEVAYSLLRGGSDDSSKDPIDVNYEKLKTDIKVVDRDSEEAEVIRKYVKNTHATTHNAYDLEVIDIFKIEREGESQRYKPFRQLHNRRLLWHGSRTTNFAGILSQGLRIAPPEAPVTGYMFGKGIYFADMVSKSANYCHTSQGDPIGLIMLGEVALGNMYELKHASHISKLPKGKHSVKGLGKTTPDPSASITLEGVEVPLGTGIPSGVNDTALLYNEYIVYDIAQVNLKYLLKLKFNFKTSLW

For orientation: EC50 means the concentration giving half of the maximal effect. Consider `CN(C)CC(=O)Nc1cccc2c1Cc1c-2[nH]c(=O)c2ccccc12` [Compound 3a], for which the EC50 in assay [1] was 200 nM.
The same measure, in the same setting: the value for `CN(C)CCC(=O)Nc1cccc2c1Cc1c-2[nH]c(=O)c2ccccc12` [Compound 3b] was 280 nM.
One may read the IC50 as the concentration that inhibits the measured activity by half. Higher therefore signals a need for much substance. Turning to `O=C(CN1CC=C(c2ccccc2)CC1)Nc1ccc2c(c1)Cc1c-2[nH]c(=O)c2ccccc12` [Compound 12a, N-(5-Oxo-5,11-dihydro-6H-indeno[1,2-c]isoquinolin-9-yl)-2-(4-phenyl-3,6-dihydro-2H-pyridin-1-yl)-acetamide], the half-inhibitory concentration (IC50) in assay [2] was 80 nM.
On the same count and under the same terms, the value for `CCCNC(=O)Nc1ccc2c(c1)Cc1c-2[nH]c(=O)c2ccccc12` [Compound 27] was 100 nM; that for `CN(C)CC(=O)Nc1ccc2c(c1)-c1[nH]c(=O)c3ccccc3c1C2` [Compound 56a, N-[5,6-Dihydro-5-oxo-indeno[1,2-c]isoquinolin-8-yl]-N,N-dimethylacetamide] was 800 nM.
